Results from article PMC12549899 (Nature Communications, 2025).

Biological target: T1, mouse OTOP1 (mOTOP1) (Mus musculus, UniProt Q80VM9)
T1 construct: expressed in transfected cells; host or cells: HEK-293 (CRL-1573, ATCC)
T1 sequence (Q80VM9 1-600): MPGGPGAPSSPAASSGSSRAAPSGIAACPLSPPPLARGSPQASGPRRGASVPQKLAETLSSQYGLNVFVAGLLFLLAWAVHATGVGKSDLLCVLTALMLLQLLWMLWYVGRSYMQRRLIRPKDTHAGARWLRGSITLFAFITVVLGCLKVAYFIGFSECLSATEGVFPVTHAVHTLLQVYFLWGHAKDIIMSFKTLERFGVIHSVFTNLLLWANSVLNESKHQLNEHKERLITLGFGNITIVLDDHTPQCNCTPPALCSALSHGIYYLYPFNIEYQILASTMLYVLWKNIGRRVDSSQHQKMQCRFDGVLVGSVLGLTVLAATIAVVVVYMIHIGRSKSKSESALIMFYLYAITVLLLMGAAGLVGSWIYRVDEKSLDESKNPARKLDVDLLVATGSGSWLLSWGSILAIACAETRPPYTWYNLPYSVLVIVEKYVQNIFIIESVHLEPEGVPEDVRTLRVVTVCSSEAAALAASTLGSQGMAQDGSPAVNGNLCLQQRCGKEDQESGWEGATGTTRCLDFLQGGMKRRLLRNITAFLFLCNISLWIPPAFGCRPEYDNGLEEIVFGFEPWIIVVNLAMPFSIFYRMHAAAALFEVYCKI
Assay: Whole-cell patch-clamp, inhibition of currents, mOTOP1 in HEK-293 cells
Assay type: cell-based
Conditions: HEK293, 100 µM (saturating concentration of C2.2)
From the text: The second series of compounds was again tested by whole-cell patch-clamp recording of DrOTOP1 expressed in HEK-293 cells. Of the 54 compounds tested, we identified 16 that inhibited DrOTOP1 acid-induced currents by over 25% (Fig. 2D and Supplementary Fig. 3E). […] The Hill coefficient of 1.52 indicated positive cooperativity and multiple binding sites, similar to C11. We next tested each of these compounds against mouse OTOP1 (mOTOP1) and human (Homo sapiens) OTOP1 (hOTOP1), which are among the closest related proteins in the mammalian proteome. […] For both compounds, we also determined whether there was any pH-dependence to their inhibitory effect by measuring dose-response curves over a range from pH 6.0, where sizable currents first appear, to pH 5.0. […]
Whole-cell patch-clamp recording was performed as previously described[6],[22],[25]. Recordings were made with an Axopatch 200B amplifier, digitized with a Digidata 1322a 16-bit data acquisition system, acquired with pClamp 8.2 and analyzed with Clampfit 10 (Molecular Devices). […]
All data are presented as mean ± SEM unless otherwise noted, and each data point represents an independent replicant. Inhibition of compounds was quantified as ((I2peak-I1)/(I2peak))*100, where I1 is the current immediately before wash-off and I2peak is the maximum recovered current (Supplementary Fig. 2). […]

`C=C(C)COc1ccccc1NC(=O)c1nc[nH]c1C` [C2.2] showed an inhibition at 100 µM of 1.92%.
